Results taken from US8889711B2, “Pyrazolopyridine derivatives as anticancer agent” (Pierre Fabre Medicament, priority 2009, dated 2014).

Columns and labels:
ALK kinase = ALK kinase (Homo sapiens, UniProt Q9UM73); test: Test to measure ALK kinase inhibition (GST-PLCγ1 substrate, anti-phosphotyrosine ELISA, luminescence); type: biochemical; conditions: ALK kinase 180 ng/ml, 250 μM ATP, 30 minutes at 30° C.
Protocol: Test to Measure ALK Kinase Inhibition
A ViewPlate (Packard) is incubated with the GST-PLCγ1 substrate (purified recombinant form) at 0.1 mg/ml in phosphate buffer (PBS pH 7.4)(100 μl/well) for one hour under shaking. The plate is then saturated with a blocking solution containing 5% bovine serum albumin (BSA) (SIGMA) in PBS buffer pH 7.4.
After adding the inhibitor at the desired final concentration (usual range of 30 μM to 10 nM), the reaction is conducted by adding the ALK kinase at 180 ng/ml in 13 mM Tris reaction buffer pH 7.5 (SIGMA); 6.5 mM MgCl2 (MERCK); 0.65 mM DiThioThreitol (DTT) (ACROS); 39 mM sodium β-glycerophosphate (TCI); 0.65 mM sodium orthovanadate (SIGMA) and 250 μM ATP (SIGMA). Incubation is carried out for 30 minutes at 30° C. under shaking.
After three washings under shaking in 0.1% PBS/Tween-20 buffer (SIGMA), an anti-phosphotyrosine antibody coupled with HRP (UBI) diluted to 1/1000th in PBS/BSA buffer 5 mg/ml, is incubated for one hour under shaking. After three further washings in 0.1% PBS/Tween-20, the wells are incubated two minutes with 100 μl of SuperSignal ELISA mixture (PIERCE).
The signal is read in luminescent mode using a luminometer (MOLECULAR DEVICES SpectraMax M5e).

karpas 299 cells = test: Measurement of inhibition of cell proliferation (Karpas), ATPlite; type: cell-based
Protocol: Measurement of Inhibition of Cell Proliferation (Karpas):
The antiproliferative activities of the compounds were measured using the ATPlite technique (Perkin Elmer).
The non-adhering cells (karpas 299) are seeded in 96-well plates (300 000 cells/ml) on Day 1 at a concentration compatible with logarithmic growth for 72 hours required for evaluation of the compounds. All the cells are treated on Day 1, then placed in an incubator at 37° C. under 5% CO2 atmosphere. Cell viability is evaluated on Day 4 by assay of released ATP, characteristic of viable cells. The IC50 values are determined by non-linear regression on the basis of a sigmoid model of dose/response relationship, Hill's slope coefficient being left variable, performed using GraphPad software sequence with the supplied algorithm.

Chain of ALK kinase (Q9UM73 19-1620): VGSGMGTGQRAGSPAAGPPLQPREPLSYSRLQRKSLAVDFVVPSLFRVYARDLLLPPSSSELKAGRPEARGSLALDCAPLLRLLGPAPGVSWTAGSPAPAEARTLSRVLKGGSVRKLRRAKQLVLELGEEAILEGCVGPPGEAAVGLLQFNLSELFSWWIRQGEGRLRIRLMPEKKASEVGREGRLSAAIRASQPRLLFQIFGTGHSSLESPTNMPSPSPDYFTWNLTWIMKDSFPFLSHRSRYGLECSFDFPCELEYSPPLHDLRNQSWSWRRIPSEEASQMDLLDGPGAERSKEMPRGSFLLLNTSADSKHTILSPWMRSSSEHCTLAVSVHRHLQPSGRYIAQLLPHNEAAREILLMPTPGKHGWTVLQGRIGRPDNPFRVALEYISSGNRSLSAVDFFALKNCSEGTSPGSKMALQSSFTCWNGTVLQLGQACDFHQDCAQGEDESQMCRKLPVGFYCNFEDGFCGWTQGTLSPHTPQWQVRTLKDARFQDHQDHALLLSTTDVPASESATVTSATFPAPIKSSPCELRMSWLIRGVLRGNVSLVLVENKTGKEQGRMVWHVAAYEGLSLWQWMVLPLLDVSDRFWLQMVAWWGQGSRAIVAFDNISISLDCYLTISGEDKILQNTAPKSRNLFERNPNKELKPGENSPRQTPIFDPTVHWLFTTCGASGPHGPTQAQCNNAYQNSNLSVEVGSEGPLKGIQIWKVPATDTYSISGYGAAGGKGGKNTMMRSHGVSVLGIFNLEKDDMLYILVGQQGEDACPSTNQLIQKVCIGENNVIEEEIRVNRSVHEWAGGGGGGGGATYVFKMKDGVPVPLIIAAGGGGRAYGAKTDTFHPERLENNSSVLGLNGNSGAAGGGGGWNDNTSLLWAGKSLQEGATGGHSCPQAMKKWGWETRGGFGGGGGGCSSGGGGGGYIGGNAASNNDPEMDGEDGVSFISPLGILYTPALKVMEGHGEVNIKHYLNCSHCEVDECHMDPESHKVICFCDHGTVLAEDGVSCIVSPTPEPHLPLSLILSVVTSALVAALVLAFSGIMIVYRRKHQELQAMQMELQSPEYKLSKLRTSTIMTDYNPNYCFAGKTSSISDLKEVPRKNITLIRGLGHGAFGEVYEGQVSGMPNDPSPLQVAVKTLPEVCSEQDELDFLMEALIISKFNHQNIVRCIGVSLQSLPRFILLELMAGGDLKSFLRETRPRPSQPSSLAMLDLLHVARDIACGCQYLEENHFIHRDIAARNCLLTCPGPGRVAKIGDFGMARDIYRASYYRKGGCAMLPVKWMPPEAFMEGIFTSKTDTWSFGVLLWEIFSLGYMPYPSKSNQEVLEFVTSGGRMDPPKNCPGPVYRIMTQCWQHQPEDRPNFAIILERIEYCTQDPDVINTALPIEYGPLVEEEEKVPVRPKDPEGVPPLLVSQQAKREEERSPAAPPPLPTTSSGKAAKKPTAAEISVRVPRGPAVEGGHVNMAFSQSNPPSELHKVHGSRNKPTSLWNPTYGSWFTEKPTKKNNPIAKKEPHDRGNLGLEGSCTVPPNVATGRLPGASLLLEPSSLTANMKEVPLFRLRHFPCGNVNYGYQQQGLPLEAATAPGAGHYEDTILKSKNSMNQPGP

Row | SMILES | IC50 (ALK kinase) [nM] | IC50 (karpas 299 cells; Homo sapiens, KARPAS-299, 72 h) [nM] | IC50 (karpas 299 cells; 72 hours) [nM]
1 | N#Cc1c(-c2ccc(O)cc2)nc2[nH]ncc2c1-c1ccc(O)cc1 [Compound 17] | 100 to 1000 | 1000 to 10000 | 
2 | N#Cc1c(-c2ccc(O)cc2F)nc2[nH]nc(N)c2c1-c1ccc(N2CCNCC2)cc1F [Compound 181] | < 100 | 1000 to 10000 | 
3 | N#Cc1c(-c2ccc(O)cc2F)nc2[nH]nc(-c3ccc(-c4ccccc4)cc3)c2c1-c1ccc(N2CCNCC2)cc1 [Compound 236] | < 100 | 100 to 1000 | 
4 | Cc1n[nH]c2nc(-c3ccc(O)c(F)c3F)c(C#N)c(-c3ccc(N4CCNCC4)cc3)c12 [Compound 277] | 100 to 1000 | > 10000 | 
5 | N#Cc1c(-c2ccc(O)cc2F)nc2[nH]ncc2c1-c1ccc(N2CCNCC2)cc1 [Compound 91] | < 100 | 1000 to 10000 | 
6 | Cc1n[nH]c2nc(-c3ccc(O)cc3F)c(C#N)c(-c3ccc(N4CCC(N(C)C)C4)o3)c12 (stereo not drawn) [Compound 159] | < 100 | 100 to 1000 | 
7 | CCN(CC)CCSc1ccc(-c2c(C#N)c(-c3ccc(O)cc3F)nc3[nH]nc(C)c23)o1 [Compound 132] | < 100 | > 10000 | 
8 | N#Cc1c(-c2cnn[nH]2)nc2[nH]nc(-c3cccs3)c2c1-c1ccc(N2CCNCC2)cc1 [Compound 279] | 1000 to 10000 | > 10000 | 
9 | Cc1n[nH]c2cc(-c3ccc(O)cc3F)c(C#N)c(-c3ccco3)c12 [Compound 81] | < 100 | 100 to 1000 | 
10 | Cc1n[nH]c2nc(-c3ccc(O)cc3F)c(C#N)c(-c3ccc(-c4ccc(S(N)(=O)=O)cc4)o3)c12 [Compound 270] | 100 to 1000 | > 10000 | 
11 | N#Cc1c(-c2ccc(O)cc2F)nc2[nH]nc(N)c2c1-c1ccc(N2CC[C@H](N)C2)cc1 [Compound 188] | < 100 | 1000 to 10000 | 
12 | Cc1n[nH]c2nc(-c3cc(Br)c(O)c(Br)c3F)c(C#N)c(-c3ccco3)c12 [Compound 90] | 1000 to 10000 | > 10000 | 
13 | Cc1cc(-c2nc3[nH]nc(-c4cccs4)c3c(-c3ccc(N4CCNCC4)cc3)c2C#N)cc(C)c1O [Compound 283] | 100 to 1000 | 1000 to 10000 | 
14 | CCOC(=O)c1c(-c2c(F)ccc(F)c2F)nc2[nH]nc(-c3cccs3)c2c1-c1ccc(N2CCNCC2)cc1 [Compound 245] | 100 to 1000 | 1000 to 10000 | 
15 | N#Cc1c(-c2ccc(CO)cc2)nc2[nH]nc(-c3ccc(C(F)(F)F)cc3)c2c1-c1ccc(N2CCNCC2)cc1 [Compound 291] | 1000 to 10000 | 1000 to 10000 | 
16 | N#Cc1c(-c2ccc(O)cc2F)nc2[nH]nc(N)c2c1-c1ccc(N2CCNCC2)c(F)c1 [Compound 193] | < 100 | 1000 to 10000 | 
17 | Cc1n[nH]c2nc(-c3ccc(O)cc3F)c(C#N)c(-c3ccc(N4CCOCC4)o3)c12 [Compound 171] | 100 to 1000 | 100 to 1000 | 
18 | N#Cc1c(-c2ccc(O)cc2F)nc2[nH]ncc2c1-c1ccc(N2CCOCC2)o1 [Compound 86] | < 100 | 1000 to 10000 | 
19 | CN(C)CCOc1ccc(-c2c(C#N)c(-c3ccc(O)cc3F)nc3[nH]nc(N)c23)cc1 [Compound 210] | 100 to 1000 | 1000 to 10000 | 
20 | N#Cc1c(-c2ccc(O)cc2F)nc2[nH]nc(N)c2c1-c1ccco1 [Compound 93] | > 10000 | 100 to 1000 | 
21 | N#Cc1c(-c2ccc(O)cc2)nc2[nH]ncc2c1-c1ccc(CCCN)o1 [Compound 289] | < 100 | 100 to 1000 | 
22 | Cc1cc(-c2n[nH]c3nc(-c4ccc(O)cc4F)c(C#N)c(C)c23)no1 [Compound 120] | 100 to 1000 | 1000 to 10000 | 
23 | Cc1n[nH]c2nc(-c3ccc(O)c(Br)c3)c(C#N)c(-c3ccc(N4CCNCC4)cc3)c12 [Compound 175] | 100 to 1000 | 1000 to 10000 | 
24 | N#Cc1c(-c2ccc(O)cc2F)nc2[nH]ncc2c1-c1ccc(Br)o1 [Compound 117] | < 100 | 100 to 1000 | 
25 | N#Cc1c(-c2ccc(O)cc2F)nc2[nH]nc(N)c2c1-c1ccc(N2CC3CNCC3C2)o1 (stereo not drawn) [Compound 164] | 100 to 1000 | > 10000 | 
26 | N#Cc1c(-c2ccc(O)cc2F)nc2[nH]nc(N)c2c1-c1ccc(N2CCNCC2)cc1 [Compound 121] | < 100 | 1000 to 10000 | 
27 | CCOC(=O)c1c(-c2ccc(O)cc2)nc2[nH]nc(C)c2c1-c1ccc(C)o1 [Compound 223] | < 100 | 100 to 1000 | 

Row | SMILES | IC50 (ALK kinase) [nM] | IC50 (karpas 299 cells; Homo sapiens, KARPAS-299, 72 h) [nM] | IC50 (karpas 299 cells; 72 hours) [nM]
28 | Cc1cc(-c2nc3[nH]nc(C)c3c(-c3ccc(N4CCNCC4)cc3)c2C#N)ccc1O [Compound 176] | 100 to 1000 | 100 to 1000 | 
29 | Cc1cc(-c2nc3[nH]nc(N)c3c(-c3ccc(N4CCNCC4)cc3)c2C#N)c(F)cc1O [Compound 294] | < 100 | 100 to 1000 | 
30 | Cc1c(C#N)c(-c2ccc(O)cc2F)nc2[nH]nc(-c3ccc(N4CCNCC4)cc3)c12 [Compound 118] | < 100 | 1000 to 10000 | 
31 | Cc1n[nH]c2nc(-c3ccc(N)cc3F)c(C#N)c(-c3ccc(N4CCNCC4)cc3)c12 [Compound 160] | 1000 to 10000 | > 10000 | 
32 | COc1cc(-c2c(C#N)c(-c3ccc(O)cc3F)nc3[nH]nc(N)c23)ccc1N1CCNCC1 [Compound 202] | 100 to 1000 | > 10000 | 
33 | N#Cc1c(-c2ccc(O)cc2F)nc2[nH]nc(N)c2c1-c1ccc(OCCCN2CCNCC2)cc1 [Compound 211] | 100 to 1000 | > 10000 | 
34 | CN(C)CCN1CCN(c2ccc(-c3c(C#N)c(-c4ccc(O)cc4)nc4[nH]nc(-c5ccc(Cl)cc5)c34)c(F)c2)CC1 [Compound 299] | < 100 | 1000 to 10000 | 
35 | N#Cc1c(-c2ccc(O)c(F)c2)cc2[nH]ncc2c1-c1ccco1 [Compound 76] | 100 to 1000 | 1000 to 10000 | 
36 | Cc1n[nH]c2nc(-c3ccc(O)cc3F)c(C#N)c(-c3ccc(N4CCNCC4)cc3)c12 [Compound 88] | < 100 |  | 100 to 1000
37 | Cc1n[nH]c2nc(-c3ccc(O)cc3F)c(C#N)c(-c3ccc(N4CCNCC4)o3)c12 [Compound 172] | 100 to 1000 | 1000 to 10000 | 
38 | CC(C)(C)C(=O)Oc1ccc(-c2nc3[nH]nc(N)c3c(-c3ccc(N4CCNCC4)cc3)c2C#N)c(F)c1 [Compound 301] | 100 to 1000 | > 10000 | 
39 | CNc1ccc(-c2nc3[nH]nc(C)c3c(-c3ccc(N4CCNCC4)cc3)c2C#N)c(F)c1 [Compound 222] | 1000 to 10000 | > 10000 | 
40 | Cc1c(C#N)c(-c2c(F)ccc(F)c2F)nc2[nH]nc(-c3ccc(N4CCNCC4)cc3)c12 [Compound 248] | 1000 to 10000 | 1000 to 10000 | 
41 | N#Cc1c(-c2ccc(O)cc2)nc2[nH]ncc2c1-c1cccc(N2CCNCC2)c1 [Compound 68] | 100 to 1000 | 1000 to 10000 | 
42 | CN(C)CCCN(C)c1ccc(-c2c(C#N)c(-c3ccc(O)cc3F)nc3[nH]nc(N)c23)cc1 [Compound 191] | < 100 | 1000 to 10000 | 
43 | CN1CCN(c2ccc(-c3c(C#N)c(-c4ccc(O)cc4F)nc4[nH]ncc34)o2)CC1 [Compound 83] | < 100 | 100 to 1000 | 
44 | Cc1n[nH]c2nc(-c3ccc(O)cc3F)c(C#N)c(C3C[C@@H]3C(=O)N3CCNCC3)c12 (stereo partly drawn) [Compound 146] | 100 to 1000 | > 10000 | 
45 | Cc1n[nH]c2cc(-c3ccc(O)cc3F)c(C#N)c(-c3ccc(CN)o3)c12 [Compound 80] | 100 to 1000 | 1000 to 10000 | 
46 | Cc1n[nH]c2nc(-c3cc4cc[nH]c4cc3F)c(C#N)c(-c3ccc(N4CCNCC4)cc3)c12 [Compound 234] | 100 to 1000 | 1000 to 10000 | 
47 | Cc1n[nH]c2nc(-c3ccc(O)cc3F)c(C#N)c(-c3ccc(N4CCC(CN)C4)o3)c12 (stereo not drawn) [Compound 163] | < 100 | 1000 to 10000 | 
48 | COC(=O)c1c(-c2ccc(O)cc2F)nc2[nH]nc(N)c2c1-c1ccc(N2CCNCC2)cc1 [Compound 295] | < 100 | 100 to 1000 | 
49 | N#Cc1c(-c2ccc(O)cc2F)nc2[nH]ncc2c1-c1ccc(CN2CCOCC2)o1 [Compound 84] | 100 to 1000 | 1000 to 10000 | 
50 | N#Cc1c(-c2ccc(O)cc2)nc2[nH]ncc2c1-c1ccsc1 [Compound 50] | 100 to 1000 | 1000 to 10000 | 
51 | CN(C)CCCOc1ccc(-c2c(C#N)c(-c3ccc(O)cc3F)nc3[nH]nc(N)c23)cc1 [Compound 194] | < 100 | 100 to 1000 | 
52 | CN1CCN(c2ccc(-c3c(C#N)c(-c4ccc(O)cc4)nc4[nH]ncc34)o2)CC1 [Compound 82] | 100 to 1000 | 1000 to 10000 | 
53 | Cc1n[nH]c2nc(-c3ccc(O)cc3)c(C#N)c(-c3ccco3)c12 [Compound 78] | 100 to 1000 | 1000 to 10000 | 
54 | Cc1n[nH]c2nc(-c3ccc(NS(C)(=O)=O)cc3F)c(C#N)c(-c3ccc(N4CCNCC4)cc3)c12 [Compound 208] | 1000 to 10000 | > 10000 | 
